Assay results from ChEMBL document CHEMBL1201862, “PubChem BioAssay data set” (2004).
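Dose response: 5 concentrations. Exposure: 48 h. Format: 96-well plates. Endpoint: linear interpolation; highest concentration if not reached. GI50 = concentration required for 50% inhibition of growth.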 Active and inactive are the calls of the source. Cut-off read from the data, not from the text of the source: active = GI50 up to about 1.1 µM and inactive = higher.

Columns and labels:
Assay in all cases: NCI anticancer screen, dose series, 48 h
CAKI-1 = system: CAKI-1
SK-MEL-28 = system: SK-MEL-28
RPMI-8226 = system: RPMI-8226
NCI-H522 = system: NCI-H522
NCI-H23 = system: NCI-H23
TK-10 = system: TK-10
SW-620 = system: SW-620
DLD-1 = system: DLD-1
KM-20L2 = system: KM-20L2
U-251 = system: U-251
SN12C = system: SN12C
SK-OV-3 = system: SK-OV-3
M19-MEL = system: M19-MEL
SNB-78 = system: SNB-78
IGROV-1 = system: IGROV-1
KM12 = system: KM12
HCC 2998 = system: HCC 2998
SF-268 = system: SF-268
HOP-18 = system: HOP-18
SF-539 = system: SF-539
CCRF-CEM = system: CCRF-CEM
K562 = system: K562
SR = system: SR
EKVX = system: EKVX
HCT-116 = system: HCT-116
786-0 = system: 786-0
SK-MEL-5 = system: SK-MEL-5
SNB-19 = system: SNB-19
DMS-114 = system: DMS-114
MOLT-4 = system: MOLT-4
HT-29 = system: HT-29
LOX IMVI = system: LOX IMVI
UACC-257 = system: UACC-257
UACC-62 = system: UACC-62
SNB-75 = system: SNB-75
OVCAR-4 = system: OVCAR-4
RXF 393 = system: RXF 393
LXFL 529 = system: LXFL 529
DMS-273 = system: DMS-273
HOP-92 = system: HOP-92
NCI-H226 = system: NCI-H226
ACHN = system: ACHN
HCT-15 = system: HCT-15
UO-31 = system: UO-31
SF-295 = system: SF-295
HOP-62 = system: HOP-62
Malme-3M = system: Malme-3M
A549 = system: A549
HL-60 = system: HL-60
COLO 205 = system: COLO 205
M14 = system: M14
OVCAR-5 = system: OVCAR-5
OVCAR-3 = system: OVCAR-3
A498 = system: A498
SK-MEL-2 = system: SK-MEL-2
NCI-H460 = system: NCI-H460

Cc1ccc(S(=O)(=O)c2ccc(C)cc2[N+](=O)[O-])cc1
GI50 (CAKI-1): 95.9 µM (inactive) | GI50 (SK-MEL-28): > 100 µM (inactive) | GI50 (RPMI-8226): > 100 µM (inactive) | GI50 (NCI-H522): 43.7 µM (inactive) | GI50 (NCI-H23): 53.7 µM (inactive) | GI50 (TK-10): > 100 µM (inactive) | GI50 (SW-620): > 100 µM (inactive) | GI50 (DLD-1): > 100 µM (inactive) | GI50 (KM-20L2): > 100 µM (inactive) | GI50 (U-251): > 100 µM (inactive) | GI50 (SN12C): > 100 µM (inactive) | GI50 (SK-OV-3): > 100 µM (inactive) | GI50 (M19-MEL): 47.1 µM (inactive) | GI50 (SNB-78): 64.4 µM (inactive) | GI50 (IGROV-1): > 100 µM (inactive) | GI50 (KM12): > 100 µM (inactive) | GI50 (HCC 2998): > 100 µM (inactive) | GI50 (SF-268): > 100 µM (inactive) | GI50 (HOP-18): > 100 µM (inactive) | GI50 (SF-539): > 100 µM (inactive) | GI50 (CCRF-CEM): > 100 µM (inactive) | GI50 (K562): 50.5 µM (inactive) | GI50 (SR): 79.4 µM (inactive) | GI50 (EKVX): > 100 µM (inactive) | GI50 (HCT-116): 71.4 µM (inactive) | GI50 (786-0): > 100 µM (inactive) | GI50 (SK-MEL-5): 24.4 µM (inactive) | GI50 (SNB-19): > 100 µM (inactive) | GI50 (DMS-114): 22.4 µM (inactive) | GI50 (MOLT-4): 45.1 µM (inactive) | GI50 (HT-29): > 100 µM (inactive) | GI50 (LOX IMVI): 82.8 µM (inactive) | GI50 (UACC-257): 28.8 µM (inactive) | GI50 (UACC-62): 92.3 µM (inactive) | GI50 (SNB-75): > 100 µM (inactive) | GI50 (OVCAR-4): > 100 µM (inactive) | GI50 (RXF 393): 82 µM (inactive) | GI50 (LXFL 529): 44.3 µM (inactive) | GI50 (DMS-273): > 100 µM (inactive) | GI50 (HOP-92): > 100 µM (inactive) | GI50 (NCI-H226): > 100 µM (inactive) | GI50 (ACHN): > 100 µM (inactive) | GI50 (HCT-15): > 100 µM | GI50 (UO-31): > 100 µM (inactive) | GI50 (SF-295): 79.4 µM (inactive) | GI50 (HOP-62): > 100 µM (inactive) | GI50 (Malme-3M): > 100 µM (inactive) | GI50 (A549): > 100 µM (inactive) | GI50 (HL-60): 29.3 µM (inactive) | GI50 (COLO 205): > 100 µM (inactive) | GI50 (M14): > 100 µM (inactive) | GI50 (OVCAR-5): > 100 µM (inactive) | GI50 (OVCAR-3): 46.9 µM (inactive) | GI50 (A498): 19.4 µM (inactive) | GI50 (SK-MEL-2): > 100 µM (inactive) | GI50 (NCI-H460): > 100 µM (inactive)
